Experimental data reported in patent publication US20250325535A1, “IDENTIFICATION OF NOVEL SMALL-MOLECULE INHIBITORS OF SARS-CoV-2 BY CHEMICAL GENETICS” (The University of Hong Kong, priority 2024, published 2025).

Tests used:
[1] = tested on: 3CLpro S301P recombinant SARS-CoV-2; type: cell-based; details: for IC50: read-out: IC50 (plaque formation assay)
[2] = tested on: SARS-CoV-2 variants and other human coronaviruses; assay: microbe, parasite or virus in culture; type: cell-based; details: Severe acute respiratory syndrome coronavirus 2, read-out: IC50 (antiviral)
[3] = tested on: SARS-COV-2 Alpha variant (B.1.1.7); type: in vivo, K18-hACE2 transgenic mice; details: n=5, IP once daily; 172 50 mg/kg, Nirmatrelvir 200 mg/kg; vehicle mice died day 5-6

Structure (SMILES)	inhibition of virus replication [1]	IC50 [1]	IC50 [2]	time of death (survival) [3]
CCOc1cc2ncc(C#N)c(Nc3ccc(F)c(Cl)c3)c2cc1NC(=O)/C=C/CN(C)C [Pelitinib]	not the mutant virus	7.3 µM		
CC(C)(C)[C@H](NC(=O)C(F)(F)F)C(=O)N1C[C@H]2[C@@H]([C@H]1C(=O)N[C@H](C#N)C[C@@H]1CCNC1=O)C2(C)C [Nirmatrelvir]		0.0201 µM	4.5 to 32 nM	one mouse died on day 6, and all remaining mice died on day 8
